# Source: US20170368054A1, “Treatment of Glaucoma Using Laquinimod” (Teva Pharmaceutical Industries, Ltd., priority 2013, published 2017)
# “And” between values parts separate entries of the source, which are not always exact repeats. Equal entries are not always repeated. “Also recorded” adds a separate entry of the source.
# Assays:
# [1] = system: retinal ganglion cells (RGC); assay: Fluoro-Gold labeled RGC survival in rat hypertonic saline injection glaucoma model; assay type: in vivo, Brown Norway rats (Rattus norvegicus); conditions: for Mean % RGC Loss (100-(100 x OHT/Non-OHT Mean RGC Counts per Retina)): OHT vs non-OHT retina, 5 weeks after 2nd HSI, vehicle 34.8
# Source text: The purpose of this study was to assess the efficacy of laquinimod in protecting against chronic ocular hypertension (OHT) and RGC degeneration in a rat model of glaucoma, created by injecting hypertonic saline into the episcleral veins in one eye of the Brown Norway rat. In this model, RGC degeneration occurs in response to increased IOP and OHT similar to that in human patients with glaucoma. The rat model of chronic ocular hypertension (OHT)/glaucoma was created in the left eye of each animal via two hypertonic saline injections (HSI) each one week apart. The un-injected right eye served as the control. Throughout the study, the vehicle control and the test articles were prepared weekly. Rats were dosed once daily for oral administration (Group 5) and twice daily for topical administration groups (Groups 1-4), starting on the day of the first HSI until euthanasia. Detailed ocular examinations were performed one week after the 2nd HSI and on the day of euthanasia. […] Post-dose IOP was measured weekly for 5 weeks starting one week after the 2nd HSI until euthanasia. Animals were euthanized 5 weeks after the 2nd HSI. The retinas were flat-mounted, slide IDs were masked and 8 regions per retina were imaged using a confocal microscope. RGC at these regions were counted using the Image J software. After the optic nerves were extracted, they were plastic-embedded, sectioned and stained with Toluidine Blue at Schepens Eye Research Institute, Boston, Mass.. The injury in the optic nerves was evaluated and graded by microscopic examination in a masked fashion. Chronic ocular hypertension (OHT) was created through two hypertonic saline injections (HSI) which were performed one week apart in the left eye. For each HSI, after the rats were anesthetized with a suitable anesthetic, a suture thread was passed through the left eyelid to fix it open. A local anesthetic (e.g., 0.5% Proparacaine HCl Ophthalmic Solution) was applied on the surgery eye topically. The conjunctiva was incised with Vannas scissors to expose an episcleral vein. An occluder ring with a groove was fitted around the left eye to provide unobstructed passage for the selected episcleral vein while obstructing the other episcleral veins. Using a pulled-glass needle, 50-250 μL of 1.8 M hypertonic saline solution was injected into the exposed episcleral vein to scar the aqueous humor outflow pathway in an attempt to elevate IOP. The ring was removed shortly after the injection. The un-operated right eye served as the control. Ophthalmic ointment was applied to both eyes to prevent corneal damage. For each HSI procedure, buprenorphine was administered subcutaneously for approximately 24 hours to manage post-operative pains as appropriate. Clinical observations was performed at least once daily as described in Table 6. Approximately one week prior to euthanasia, RGC was labeled with the retrograde tracer FG. First, animals were sedated with appropriate anesthesia. […] Rats received subcutaneous injections of buprenorphine for approximately 48 hours to manage post-surgery pain as appropriate. The eyes were fixed in 4% paraformaldehyde (PFA) fixative at 4±2° C. for at least 24 hours. Retinas were dissected and flat whole-mounted for confocal visualization and imaging. The actual identification of the retinal flat-mounts was masked prior to confocal imaging. Eight regions per retina were imaged using a confocal microscope and the RGC in each region were counted as follows: Retinal images were evaluated by confocal fluorescence microscopic examination. A three-dimensional view of the x-axis, y-axis, and z-axis were designed and processed using a specific system of image analysis software (Leica Confocal Software) to obtain an image of the viable RGCs labeled with FG. Two areas which were approximately 1.5 mm and 2.75 mm away from the center of the ON head were selected in each retinal quadrant (8 regions per retina) and serial images of the retinal ganglion cell layer were taken by the Confocal Microscope. […]
# [2] = system: rat model of chronic ocular hypertension (OHT)/glaucoma; assay: Intraocular pressure (IOP) measurement, Tono-Pen Vet tonometer, rat OHT model; assay type: in vivo, Brown Norway rats (Rattus norvegicus); conditions: average of 5 weekly post-HSI measurements, groups matched for Mean ΔIOP
# Protocol: For each IOP measurement time-point following the 2nd HSI, the IOP elevation was calculated as the difference between the IOP in the left eye with OHT and that in the non-OHT right eye (ΔIOP). The ΔIOP for the 5 weekly post-HSI IOP measurements were averaged and constituted the Mean ΔIOP for each animal. […] Other animals were removed from the study. Baseline IOP measurements were taken before the initial dose administration. After application of topical anesthesia (0.5% Proparacaine HCl Ophthalmic Solution), IOP was measured on conscious rats on both eyes using a Tono-Pen Vet tonometer (Reichert, Inc.; Depew, N.Y.). Ten (10) IOP readings are recorded from each eye and averaged. IOP measurements were taken around the same time (e.g., between 10 a.m. and 2 p.m.) across measurement time-points to minimize the circadian variability of IOP. IOP measurements were taken once weekly starting one week after the second HSI until euthanasia (a total of 5 measurements). After application of topical anesthesia (0.5% Proparacaine HCl Ophthalmic Solution), IOP was measured on conscious rats on both eyes using a Tono-Pen Vet tonometer (Reichert, Inc.; Depew, N.Y.). For each time-point, ten (10) IOP readings were recorded from each eye and averaged. IOP measurements were taken around the same time (e.g., between 10 a.m. and 2 p.m.) across measurement time-points to minimize the circadian variability of IOP. The IOP measurements were evaluated as follows: For each time-point following the HSI, the IOP elevation was calculated as the difference between the level in the left eye with OHT and that in the normal right eye (ΔIOP). The ΔIOP of the 5-weekly post-HSI IOP measurements were averaged and constitute the Mean ΔIOP for each animal. For each group, ten (10) animals with a sustained IOP elevation in the OHT eye were selected from a larger pool and groups are matched for the Mean ΔIOP. Other animals were removed from the study and euthanized. […] For each time-point following the HSI, the IOP elevation was calculated as the difference between the level in the left eye with OHT and that in the normal right eye (ΔIOP). The ΔIOP of the 5-weekly post-HSI IOP measurements were averaged and constitute the Mean ΔIOP for each animal. For each group, ten (10) animals with a sustained IOP elevation in the OHT eye were selected from a larger pool and groups were matched for the Mean ΔIOP. Other animals were removed from the study and euthanized.
compound,measurement,setting,value
CCN(C(=O)c1c(O)c2c(Cl)cccc2n(C)c1=O)c1ccccc1 [Laquinimod],"FG-Labeled RGC counts per mm2, OHT vs Non-OHT retinas, two-tailed paired-t test","[1]; Group 1, 1% Laquinimod topical, P=0.189",no statistically significant difference
same,Mean % RGC Loss (100-(100 x OHT/Non-OHT Mean RGC Counts per Retina)),"[1]; Group 1, topical 1% laquinimod twice daily",17.6±33.8% and 17.6%
same,"FG-Labeled RGC counts per mm2, OHT vs Non-OHT retinas, two-tailed paired-t test","[1]; Group 3, 4% Laquinimod topical, P=0.071",statistically marginally different
same,Mean % RGC Loss (100-(100 x OHT/Non-OHT Mean RGC Counts per Retina)),"[1]; Group 3, topical 4% laquinimod twice daily",26.8±36.4% and 26.8%
same,"FG-Labeled RGC counts per mm2, OHT vs Non-OHT retinas, two-tailed paired-t test","[1]; Group 4, 0.25% Laquinimod topical, P=0.033",fewer RGCs in the OHT eye
same,Mean % RGC Loss (100-(100 x OHT/Non-OHT Mean RGC Counts per Retina)),"[1]; Group 4, topical 0.25% laquinimod twice daily",21.6±21.7% and 21.6%
same,"FG-Labeled RGC counts per mm2, OHT vs Non-OHT retinas, two-tailed paired-t test","[1]; Group 5, 0.1% Laquinimod oral, P=0.075",statistically marginally different
same,Mean % RGC Loss (100-(100 x OHT/Non-OHT Mean RGC Counts per Retina)),"[1]; Group 5, oral 0.1% laquinimod once daily (1 mL)",22.9±33.1% and 22.9%
same,"RGC counts in OHT and Non-OHT eyes versus groups, Two-Way ANOVA eye versus group interaction","[1]; all groups (0.25%, 1%, 4% topical, 0.1% oral, vehicle), P=0.919",groups did not differ
same,Neuroprotection for the RGC (conclusion from RGC counts),"[1]; daily topical application of 1% Laquinimod, Group 1",may be neuroprotective; also recorded: trend towards neuroprotection
same,Mean ΔIOP (OHT minus Non-OHT) (Mean±SD),"[2]; Group 1, topical 1% laquinimod",9.1±2.2 mmHg
same,Mean ΔIOP (OHT minus Non-OHT) (Mean±SD),"[2]; Group 3, topical 4% laquinimod",9.3±2.7 mmHg
same,Mean ΔIOP (OHT minus Non-OHT) (Mean±SD),"[2]; Group 4, topical 0.25% laquinimod",9.2±1.5 mmHg
same,Mean ΔIOP (OHT minus Non-OHT) (Mean±SD),"[2]; Group 5, oral 0.1% laquinimod",9.1±2.9 mmHg
